# Measured values published in PubChem BioAssay (NCI).
# “And” between values parts separate entries of the source, which are not always exact repeats. Equal values may be shown once.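 In this assay, cells in 96-well plates receive the compound at five concentrations for 48 hours. Endpoints are linearly interpolated between the surrounding concentrations. GI50: concentration for 50% inhibition of growth. TGI is the concentration that stops growth completely.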
# Key:
# Experiment in all cases: NCI-60 cell line screen, 48 h
# MOLT-4 leukemia = test system: MOLT-4 leukemia
# SNB-75 CNS = test system: SNB-75 CNS
# HL-60(TB) leukemia = test system: HL-60(TB) leukemia
# A498 renal = test system: A498 renal
# K-562 leukemia = test system: K-562 leukemia
# COLO 205 colon = test system: COLO 205 colon
# SW-620 colon = test system: SW-620 colon
# HOP-62 NSCLC = test system: HOP-62 NSCLC
# NCI-H460 lung = test system: NCI-H460 lung
# DU-145 prostate = test system: DU-145 prostate
Compound,TGI (MOLT-4 leukemia) [µM],TGI (SNB-75 CNS),TGI (HL-60(TB) leukemia),TGI (A498 renal) [µM],TGI (K-562 leukemia) [µM],TGI (COLO 205 colon),TGI (SW-620 colon) [µM],TGI (HOP-62 NSCLC) [µM],TGI (NCI-H460 lung) [µM],GI50 (MOLT-4 leukemia),GI50 (SNB-75 CNS) [µM],GI50 (DU-145 prostate) [µM],TGI (DU-145 prostate) [µM],GI50 (A498 renal) [µM],GI50 (K-562 leukemia) [µM],GI50 (COLO 205 colon) [µM],GI50 (SW-620 colon) [µM],GI50 (HOP-62 NSCLC) [µM],GI50 (NCI-H460 lung) [µM],GI50 (HL-60(TB) leukemia) [µM]
OC1CC(O)O[C@H](c2ccccc2)C1 (stereo partly drawn),> 100,> 100 µM,> 100 µM,> 100,> 100,> 100 µM,> 100,> 100,> 100,–,–,–,–,–,–,–,–,–,–,–
CC(=O)Oc1ccc2c(=O)c(C(C)=O)coc2c1,> 100,–,> 100 µM,> 100,> 100,> 100 µM,> 100,> 100,> 100,–,–,–,–,–,–,–,–,–,–,–
CC(C)C[C@H](NC(=O)[C@@H](Cc1ccccc1)n1ccc(Nc2ccccc2)cc1=O)B(O)O,> 100,1.83 µM,–,0.36,> 100,13.1 µM,14.4,7.04,8.29,0.247 µM,0.3,0.783,16.7,0.0262,0.477,0.545,0.32,1.74,0.836,–
O=C(c1ccccc1)n1cc(/C=C/[N+](=O)[O-])c2ccccc21,40.3,82.1 µM,13.3 µM,> 100,47.7,59.2 µM,38.1,> 100,43.3,–,–,–,–,–,–,–,–,–,–,–
CCN(N=O)C1C2(CCCC2)NC(=O)C12CCCC2 (stereo not drawn),> 100,> 100 µM,> 100 µM,> 100,> 100,–,> 100,> 100,> 100,–,–,–,–,–,–,–,–,–,–,–
COc1cccc(C(=O)NNc2nc(Cl)nc(N3CCN(C(c4ccccc4)c4ccccc4)CC3)n2)c1,7.54,3.56 µM,43.9 µM,40.2,–,14.3 µM,3.98,23.5,12,2.36 µM,1.51,4.3,15.3,14.1,–,3.67,1.9,8.71,3.26,6.29
COC(=O)C1C(C(=O)O)C2(c3ccccc3)C(=O)C1(c1ccccc1)C(c1ccc(OC)cc1)=C2c1ccc(OC)cc1 (stereo not drawn),43.4,–,–,46.2,> 100,38.8 µM,46.6,47.5,31,18 µM,–,19.9,49.8,23.2,28.4,16.4,23.2,20.4,13.7,–
O=C(CCN1CCCCC1)c1csc2ccccc12,> 100,> 100 µM,–,> 100,> 100,> 100 µM,> 100,> 100,> 100,–,–,–,> 100,–,–,–,–,–,–,–
CCOC(=O)C1=C(C)NC2SC(=O)/C(=C\c3cccc(Cl)c3)N2C1c1ccccc1 (stereo not drawn),–,> 100 µM,> 100 µM,> 100,> 100,> 100 µM,> 100,> 100,> 100,–,> 100,> 100,> 100,> 100,> 100,> 100,> 100,> 100,> 100,> 100
CCCCCc1cc(/C=C2/N=C(c3ccc[nH]3)C=C2OC)[nH]c1C,0.134,< 0.0124 µM,–,0.959,0.259,0.0483 µM,0.206,0.362,1.26,–,–,–,1.48,–,–,–,–,–,–,–
CC(=O)OC(COc1ccc2c(c1)[n+]([O-])nc(N)[n+]2[O-])CN1CCCCC1 (stereo not drawn),14.8,46.7 µM,26.9 µM,16.5,38.5,30.5 µM,> 100,–,21.8,–,–,–,54.9,–,–,–,–,–,–,–
C#CN1C(=O)c2c(c(-c3ccccc3)c(-c3ccc(Oc4ccc(-c5c(-c6ccccc6)c6c(c(-c7ccccc7)c5-c5ccccc5)C(=O)N(C#C)C6=O)cc4)cc3)c(-c3ccccc3)c2-c2ccccc2)C1=O,> 100,> 100 µM,> 100 µM,–,> 100,> 100 µM,> 100,> 100,> 100,–,–,–,–,–,–,–,–,–,–,–
CO/N=C(/C)COc1ccc2c(c1)oc(=O)c1cc(OC)ccc12,> 100,> 100 µM,–,> 100,> 100,> 100 µM,> 100,> 100,> 100,> 100 µM,57.4,> 100,> 100,> 100,> 100,> 100,> 100,95.3,> 100,–
CCN1CCN(Cc2ccc(NC(=O)Nc3nc(-c4cc(OC)c(OC)c(OC)c4)cs3)cc2C(F)(F)F)CC1,3.69,3.91 µM,4.25 µM,5.48,1.92,3.2 µM,3.31,–,3.2,1.29 µM,1.19,2.07,4.92,1.96,0.42,1.58,1.62,–,1.65,1.94
CC1(C)CC[C@]23CC[C@]4(C)[C@H](CC[C@@H]5[C@@]6(C)CCCNC(C)(C)[C@@H]6CC[C@]54C)[C@H]2[C@H]1OC3,5.04,2.94 µM,–,3.67,7,2.68 µM,3.49,3.75,2.2,2.1 µM,1.5,1.74,3.23,1.68,1.96,1.28,1.75,1.91,0.646,–
O=C(O)C1=Cc2cccc3cccc(c23)C1=O,> 100,> 100 µM,> 100 µM,73.5,> 100,> 100 µM,> 100,> 100,> 100,–,–,–,–,–,–,–,–,–,–,–
N#CC1=C(N)N=C(N2CCOCC2)C(C#N)C12Nc1ccccc1S2 (stereo not drawn),> 100,–,> 100 µM,–,> 100,52.4 µM,> 100,> 100,37.1,23.4 µM,–,19.2,56.5,–,26.7,12.7,23.2,61.4,16.6,51

Compound,TGI (MOLT-4 leukemia) [µM],TGI (SNB-75 CNS),TGI (HL-60(TB) leukemia),TGI (A498 renal) [µM],TGI (K-562 leukemia) [µM],TGI (COLO 205 colon),TGI (SW-620 colon) [µM],TGI (HOP-62 NSCLC) [µM],TGI (NCI-H460 lung) [µM],GI50 (MOLT-4 leukemia),GI50 (SNB-75 CNS) [µM],GI50 (DU-145 prostate) [µM],TGI (DU-145 prostate) [µM],GI50 (A498 renal) [µM],GI50 (K-562 leukemia) [µM],GI50 (COLO 205 colon) [µM],GI50 (SW-620 colon) [µM],GI50 (HOP-62 NSCLC) [µM],GI50 (NCI-H460 lung) [µM],GI50 (HL-60(TB) leukemia) [µM]
COc1cc(/C=C2\CC3C4CCC5=CC(=O)CC[C@]5(C)C4CC[C@]3(C)C2=O)ccc1OCCN1CCCC1 (stereo partly drawn),1.84,11.1 µM,–,10.6,1.53,4.91 µM,11.5,6.11,> 37.5,0.689 µM,3.47,3.76,16.8,5.05,0.489,2.04,3.09,2.33,3.57,–
Cc1ccc2ncnc(N(C)C3CCCCC3)c2c1,63.6,–,–,> 100,94.4,> 100 µM,–,> 100,> 100,14.4 µM,–,33.9,> 100,77.1,13.5,35.1,–,28.7,25.3,–
C[C@@H](NC1CCCC[C@@H]1O)c1ccccc1 (stereo partly drawn),> 100,> 100 µM,> 100 µM,–,> 100,> 100 µM,> 100,> 100,> 100,–,–,–,–,–,–,–,–,–,–,–
Cn1cc(-c2csc(-c3ccccc3)n2)c2cccnc21,29,97.6 µM,34 µM,–,48.9,26.9 µM,30.1,29.5,31,10.3 µM,23.5,15,29.3,–,13.9,14,14.9,15.5,16,9.4
CC(=O)[O-].CC(=O)[O-].O=C([CH-]C(=O)c1ccccc1)c1ccccc1.[Nd+3].[OH3+],> 100,32.9 µM,31.8 µM,> 100,> 100,> 100 µM,> 100,73.6,> 100,10.6 µM,6.24,–,–,43.1,7.26,27.9,16.3,14.7,16.7,7.85
CC(=O)OCc1nnn2c1C(OC(C)=O)CC2 (stereo not drawn),> 100,> 100 µM,–,–,> 100,> 100 µM,> 100,–,> 100,–,–,–,–,–,–,–,–,–,–,–
CSC1=CC(=O)c2ccccc2C1=O,4.86,24.2 µM,4.33 µM,–,–,3.65 µM,8.13,31.8,> 100,1.64 µM,11.6,10.8,23.6,–,–,1.99,2.49,16.7,31.3,1.87
CCOC(=O)C#Cc1cccc(C#CC(=O)OCC)c1,–,13.4 µM,4.06 µM,36.2,–,9.92 µM,14.6,11.6,39.2,–,–,–,17.9,–,–,–,–,–,–,–
CCCCCOC(=O)Nc1nc(=O)n(C2OC(C)C(O)C2O)cc1F (stereo not drawn),> 10000,–,> 10000 µM,–,–,–,> 10000,> 10000,–,> 10000 µM,–,–,–,–,–,–,> 10000,> 10000,–,5070
Clc1nc(Cl)c2ncn(-c3ccccc3)c2n1,52.3,13.9 µM,4.21 µM,25,7.05,13.5 µM,5.74,–,23.5,7.95 µM,2.93,1.44,2.96,12,2.61,3.4,2.08,–,6.24,1.96
Cc1ccc(NC(=S)NNC(=S)Nc2ccc(C)cc2)cc1,–,67.3 µM,–,> 100,–,50 µM,> 100,–,> 100,–,3.39,6.89,59.2,2.96,–,7.6,3.81,–,3.89,–
CC(=O)OC(C(=O)[O][Ge]([CH3])([CH3])[CH3])c1ccccc1 (stereo not drawn),–,> 100 µM,> 100 µM,> 100,> 100,> 100 µM,> 100,> 100,> 100,–,> 100,–,–,> 100,> 100,> 100,> 100,> 100,> 100,–
O=C1NC(c2ccc3ccccc3c2)Nc2ccccc21 (stereo not drawn),–,> 100 µM,> 100 µM,> 100,7.04,> 100 µM,> 100,> 100,> 100,–,–,–,> 100,–,–,–,–,–,–,–
CCCCCCCCCCCCC(O)C1CCC(C(O)CCCCC(O)CCCCCC2CC(CC(C)=O)C(=O)O2)O1 (stereo not drawn),35,5.42 µM and 16.4 µM,4.02 µM and 2.75 µM,20.6,7.7,2.65 µM and 11.7 µM,25.4,19.1,> 43.8,1.94 µM and 2.05 µM,1.25,–,–,5.64,1.35,1.37,3.29,2.74,–,1.29
CC[O-].CC[O-].O=C1C=C([O-])C(=O)c2ccccc21.O=C1C=C([O-])C(=O)c2ccccc21.[Ti+4],> 100,> 90.1 µM,> 100 µM,> 60.9,> 100,> 59.8 µM,> 100,> 100,> 92.9,> 100 µM,4.99,–,–,22.5,69.6,24,90.5,> 100,7.76,7.22
O=C(/C=C(/C=C/c1cccc2[nH]ccc12)OB(F)F)/C=C/c1cccc2[nH]ccc12,3.72,–,7.23 µM,3.42,> 100,3.15 µM,1.58,9.4,2.91,0.385 µM,–,0.753,2.07,1.7,0.423,0.771,0.393,2.31,0.684,0.641
CCOC(=O)C(C(=O)OCC)=C1C=C(c2ccccc2)c2ccccc21,> 100,> 100 µM,92 µM,62.9,> 100,> 100 µM,> 100,> 100,> 100,–,–,–,–,–,–,–,–,–,–,–
